Laboratory results: patent US10548864B2, “Enhanced ATRA-related compounds for the treatment of proliferative diseases, autoimmune diseases, and addiction conditions” (Beth Israel Deaconess Medical Center, Inc., priority 2015, dated 2020)
One block for each molecule: values may come before it.

What was measured:
[1] = system: APL cells from hCG-PML-RARα transgenic mice; details: APL mouse model
[2] = system: human normal and breast cancer cell lines; assay: Cell growth of human normal and breast cancer cell lines; format: cell-based
Experimental: Absorbance was determined at 570 nm.
To test this possibility, we chose breast cancer as a model due to the substantial oncogenic role of Pin1 in vitro and in vivo.

[3] = system: Pin1 and PML-RARα; assay: Pin1 and PML-RARα immunostaining in bone marrow of APL patients treated with ATRA
Experimental: Tissue samples were washed with PBS and fixed with 4% paraformaldehyde at room temperature for 20 minutes, followed by permeabilization and blocking with PBS containing 0.1% Triton X-100 and 5% FBS for 1 hour. After another wash with PBS, immunostaining was performed by incubating the cells with mouse anti-Pin1 (1:1000), or rabbit anti-PML (Santa Cruz; 1:100) primary antibodies at 4° C. overnight. Primary antibodies were diluted in PBS containing 0.1% Triton X-100, 0.2% BSA, 0.5 mM PMSF, and 1 mM dithiothreitol. […] Samples were nuclear counterstained with 4,6-diamidino-2-phenylindole (DAPI), mounted and visualized with a LSM510 confocal imaging system.
Bone marrow aspirates were obtained with informed consent from the iliac crest of patients in whom the diagnosis of acute promyelocytic leukemia was suspected based on the morphological evaluation of peripheral blood smear. […] Samples tested positive for the PML/RARα rearrangement by RT-PCR.

[4] = system: MDA-MB-231 cells; assay: MDA-MB-231 xenograft in nude mice
Experimental: Tumor sizes were measured weekly and mice were sacrificed after 7 weeks to collect tumor tissues (37A). […] Pin1 and cyclin D1 in xenograft tumors were assayed by IB (37C).
Tumor sizes were measured weekly and mice were sacrificed after 7 weeks to collect tumor tissues (37G).
Tumor sizes were recorded weekly by a caliber for up to 8 weeks and tumor volumes were calculated using the formula L×W^2×0.52, where L and W represent length and width, respectively.
(§3) In pilot experiments, MDA-MB-231 cells were subcutaneously injected into female nude mice in the flank.

[5] = system: human APL NB4 cells; assay: Immunoblot of Pin1 and PML-RARα in APL NB4 cells; format: cell-based; details: for PML-RARα level: APL cells; for PML-RARα level / Pin1 degradation: 72 hours
[6] = system: GST-cyclophilin; assay: Chymotrypsin coupled PPIase activity assay; format: biochemical
Experimental: Compounds were preincubated with enzymes for 0.5 to 2 hours at 4° C. Ki values obtained from PPIase assays are derived from the Cheng-Prusoff equation: [formula] where Km is the Michaelis constant for the used substrate, S is the initial concentration of the substrate in the assay, and the IC50 value is of the inhibitor. Cell Growth Assays

[7] = system: NIH 3T3 cells; assay: Centrosome amplification induced by Pin1 overexpression; details: 72 hours
[8] = system: cyclin D1 promoter; assay: Cyclin D1 promoter luciferase activity upon Pin1 overexpression; details: 72 hours
[9] = system: human APL NB4 cells; assay: NB4 cell growth
Experimental: (§4) For cell growth assays described below, cells were seeded in a density of 3000 cells per well in 96-well flat-bottomed plates, and incubated for 24 h in 10% FBS-supplemented DMEM culture medium. […] Control cells received DMSO at a concentration equal to that in drug-treated cells. After 72 hours, the number of cells was counted after trypsin digestion, or medium containing 0.5 mg/ml 3-(4,5-dimethylthiazol-2-yl)-2,5-diphenyl-2H-tetrazolium bromide was added to each well for 2 hours of incubation at 37° C., followed by removal of the media before the addition of 200 μl DMSO. Absorbance was determined at 570 nm.

[10] = target: T1, Pin1 (Mus musculus, UniProt Q9QUR7); assay: Pin1 level, mRNA and stability in MEFs (immunoblot, RT-PCR, CHX chase); format: cell-based
T1 construct: endogenous in cells; host or cells: mouse embryonic fibroblasts (MEFs)
T1 sequence (Q9QUR7 whole entry): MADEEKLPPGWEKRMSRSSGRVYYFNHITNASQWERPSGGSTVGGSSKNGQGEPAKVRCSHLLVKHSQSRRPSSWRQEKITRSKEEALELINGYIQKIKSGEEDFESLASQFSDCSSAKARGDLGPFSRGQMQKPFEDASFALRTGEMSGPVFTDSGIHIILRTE
Experimental: RNA from cells was extracted with the Total RNA isolation mini kit (Agilent). cDNA was prepared with transcriptor first strand cDNA synthesis kit (Roche) and PCR was carried out with iQ SYBR Green Supermix (Bio-Rad). Samples were run on the QIAGEN Rotor-Gene Q real-time cycler. GAPDH was used as an internal control. Analysis was performed with the delta-delta ct method. The following primers were used: […]

[11] = system: Pin1; assay: Immunoblot of Pin1 and its substrate oncogenes and tumor suppressors in breast cells
Experimental: For immunoprecipitation and immunoblotting in the examples below, cells were polyethylenimine (PEI)- or lipofemamine-transfected with 8 μg of various plasmids, incubated in 10 cm dishes for 24 hours, and subsequently treatment with drugs as needed. […] After centrifugation at 13,000 g for 10 minutes, one tenth of the supernatant was stored as input, and the remainder was incubated 12 hours with M2 Flag agarose (Sigma). After brief centrifugation, immunoprecipitates were collected, extensively washed with the aforementioned lysis buffer twice, suspended in 2×SDS sample buffer (100 mM Tris-HCl, pH 6.8, 4% SDS, 5% β-mercaptoethanol, 20% glycerol, and 0.1% bromphenol blue), boiled for 10 minutes, and subjected to immunoblotting analysis. […] After electrophoresis, gel was transferred to nitrocellulose membranes using a semidry transfer cell. The transblotted membrane was washed twice with Tris-buffered saline containing 0.1% Tween 20 (TBST). After blocking with TBST containing 5% bovine serum albumin (BSA) for 1 hour, the membrane was incubated with the appropriate primary antibody (diluted 1:1000) in 2% BSA-containing TBST at 4° C. overnight. After incubation with the primary antibody, the membrane was washed three times with TBST for a total of 30 minutes followed by incubation with horseradish peroxidase (HRP)-conjugated goat anti-rabbit or anti-mouse IgG (diluted 1:2500) for 1 hour at room temperature. After three extensive washes with TBST for a total of 30 minutes, the immunoblots were visualized by enhanced chemiluminescence.

[12] = in humans; cited from earlier work
[13] = target: T2, GST-Pin1 (Homo sapiens, UniProt Q13526); assay: Chymotrypsin coupled PPIase activity assay; format: biochemical
T2 sequence (Q13526 whole entry): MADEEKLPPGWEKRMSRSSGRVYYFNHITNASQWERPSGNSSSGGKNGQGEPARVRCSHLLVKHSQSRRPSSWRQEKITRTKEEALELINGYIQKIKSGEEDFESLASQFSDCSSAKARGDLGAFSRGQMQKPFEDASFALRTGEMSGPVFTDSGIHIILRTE
Experimental: (§1) Compounds were preincubated with enzymes for 0.5 to 2 hours at 4° C. Ki values obtained from PPIase assays are derived from the Cheng-Prusoff equation:
(§2) [formula] where Km is the Michaelis constant for the used substrate, S is the initial concentration of the substrate in the assay, and the IC50 value is of the inhibitor. Cell Growth Assays

[14] = target: GST-FKBP12 (Homo sapiens, UniProt P62942); assay: Chymotrypsin coupled PPIase activity assay; format: biochemical
GST-FKBP12, sequence (P62942 whole entry): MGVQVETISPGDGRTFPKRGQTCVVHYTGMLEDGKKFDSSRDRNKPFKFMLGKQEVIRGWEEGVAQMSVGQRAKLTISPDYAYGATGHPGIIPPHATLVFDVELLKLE
Experimental: as §1, §2

[15] = system: SKBR3 cells; assay: Foci formation assay upon Pin1 overexpression
[16] = system: MRL/lpr lupus prone mice; assay: MRL/lpr lupus prone mice
[17] = system: MDA-MB-468 cells; assay: MDA-MB-468 xenograft in nude mice
Experimental: Tumor sizes were measured weekly and mice were sacrificed after 7 weeks to collect tumor tissues (37D). […] Pin1 and cyclin D1 in xenograft tumors were assayed by IB (37F).
as §3

[18] = system: RAR; assay: Transactivation of RAR downstream target genes
[19] = system: mouse embryonic fibroblasts (MEFs); assay: Cell growth assay in Pin1 WT and Pin1 KO MEFs
Experimental: as §4

[20] = target: T2, GST-Pin1; assay: Fluorescence polarization pTide competition assay (FP-HTS / FP assay)
Text: Measurements of fluorescence polarization and fluorescence absorbance were made in black 384-well plates (Corning) using a Synergy II plate reader. […] The assay can tolerate up to 10% DMSO.
Molecules that compete with pTide for binding to the active site, e.g., Pin1 substrates, were detected under equilibrium conditions. A Z score was used to identify and rank those molecules that were most competitive with pTide (e.g., that have higher binding affinity). A Z score is defined as Z=(x−μ)/σ, where x is a raw score, μ is the mean of the population, and σ is the standard deviation of the population. Molecules with the most negative Z scores represent those with the highest Pin1 binding affinity. The Z′ value for this assay was around 0.70 and was consistent for day-to-day performance, with a coefficient of variation in the range of 4-5%.

[21] = system: NB4 cells; assay: APL cell differentiation (Giemsa staining, FACS with CD14 and CD11b); format: cell-based, human; details: 72 hours
Text: The latter result could be attributed to the stabilization of RAR protein upon Pin1 KD.

[22] = after 10 days of ATRA treatment
[23] = 5 or 10 mg 21 day ATRA-releasing pellets, 1 week after inoculation
[24] = three sensitive cancer cell lines, 72 hours

Structure (SMILES): CC1=C(/C=C/C(C)=C/C=C/C(C)=C/C(=O)O)C(C)(C)CCC1 [ATRA, all-trans retinoic acid]
PML-RARα in the bone marrow [1]: effectively reduced PML-RARα in the bone marrow | Pin1 levels in the bone marrow [1]: reduced Pin1 levels in the bone marrow | Spleen weight [1]: spleen weights nearly at basal levels | Cell growth, malignant breast cancer cells ([2]; 72 hours): differential susceptibility | Cell growth, non-transformed MCF10A and HMLE cells ([2]; 72 hours): highly resistant | PML-RARα level in bone marrow of APL patients ([3]; after 3 days of ATRA treatment): ~40% | Pin1 level in bone marrow of APL patients ([3]; after 3 days of ATRA treatment): ~40% | PML-RARα level in bone marrow of APL patients [3, 22]: < 10% | Pin1 level in bone marrow of APL patients [3, 22]: < 10% | Tumor growth [4, 23]: potently and dose-dependently inhibited tumor growth | Endogenous and exogenous Pin1 and cyclin D1 in tumors of Pin1-expressing MDA-MB-231 cells ([4]; ATRA implants): dose-dependently reduced both endogenous and exogenous Pin1, and cyclin D1 | Tumor growth, MDA-MB-231 cells stably expressing Pin1 ([4]; ATRA implants): effectively inhibited by ATRA in a dose-dependent manner | Pin1 and cyclin D1 in tumors ([4]; ATRA-releasing pellets): reduced both Pin1 and its substrate cyclin D1 | Antitumor activity ([4]; intraperitoneally 3 times a week for 8 weeks (12.5 mg/kg)): only modest antitumor activity | PML-RARα level [5]: dose-dependently reduced PML-RARα | Pin1 and PML-RARα expression ([5]; NB4 cells, 10 μM for 96 hours): reduced Pin1 and PML-RARα expression | Inhibition of cyclophilin [6]: did not inhibit | Centrosome amplification induced by Pin1 overexpression [7]: dose-dependently and fully inhibited | Activation of the cyclin D1 promoter by Pin1 overexpression [8]: dose-dependently and fully inhibited | NB4 cell proliferation [9]: suppressed | Pin1 protein level ([10]; MEFs, immunoblot): dose-dependently down-regulated Pin1 | Pin1 mRNA levels ([10]; MEFs, quantitative RT-PCR): no obvious effects | Degradation of PML-RARα and Pin1 ([10]; RARα, β, and γ triple KO MEFs): induced degradation of PML-RARα and Pin1 similar to that for WT controls | Effects on Pin1 and substrate proteins in normal MCF10A cells ([11]; MCF10A cells): no appreciable effects | Protein levels of Pin1 and its substrate oncogenes (cyclin D1, HER2, ERa, Akt, NFκB/p65, c-Jun, PKM2) [11, 24]: dose-dependent protein reduction | Protein levels of Pin1 substrate tumor suppressors (Smad2/3, SMRT) [11, 24]: protein induction | Half-life [12]: ~45 min | Inhibition of the PPIase activity of Pin1 [13]: fully inhibited | Inhibition of FKBP12 [14]: did not inhibit | Foci formation enhanced by Pin1 overexpression [15]: dose-dependently and fully inhibited | Visual lupus-related phenotypes (fur loss, skin inflammation, lymphoid hyperplasia) ([16]; 5 mg ATRA for 8 weeks from 8 weeks of age): drastically suppressed visual lupus-related phenotypes in all six treated mice | Size of spleen and lymph node ([16]; 14 week-old ATRA-treated mouse): normal size | Glomerular deposition of IgG, C3, and CD68 ([16]; mouse, in vivo): potently inhibited | Hyperkeratinosis ([16]; mouse, in vivo): potently inhibited | Tumor growth [17, 23]: potently and dose-dependently inhibited tumor growth | Pin1 and cyclin D1 in tumors ([17]; ATRA-releasing pellets): reduced both Pin1 and its substrate cyclin D1 | Transactivation of RAR downstream target genes (RARβ, TGM2) [18]: effectively and significantly induces transactivation | Inhibition of growth of Pin1 WT MEFs ([19]; Pin1 WT MEFs): relatively high concentrations of ATRA were required | Inhibition of growth of Pin1 KO MEFs ([19]; Pin1 knockout (KO) cells): much more resistant

Structure (SMILES): CCOC(=O)CN1C(=O)c2ccc3c4c(ccc(c24)C1=O)C(=O)N(CC(=O)OCC)C3=O [PiB]
PML-RARα level [5]: dose-dependently reduced PML-RARα | Pin1 degradation ([5]; NB4 cells): inhibited Pin1 without degrading it | APL cell differentiation [21]: neither Pin1 inhibitors nor Pin1 KD induced APL cell differentiation

Structure (SMILES): Clc1cccc(C(c2ccc3[nH]cnc3c2)n2ccnc2)c1 (centres unmarked) [liarazole]
Inhibition of cell proliferation in combination with ATRA ([2]; AU565 or SKBR3 cells, cytochrome P450 inhibitor plus ATRA): generally additive effects

Structure (SMILES): CC1=C(/C=C/C(C)=C/C=C/C(C)=C\C(=O)O)C(C)(C)CCC1 [Compound 13cRA, 13-cis-retinoic acid]
Inhibition of cyclophilin [6]: did not inhibit | Z score in FP-HTS ([20]; ~8200 compounds screened): lowest Z score | Inhibition of the PPIase activity of Pin1 [13]: fully inhibited | Inhibition of FKBP12 [14]: did not inhibit

Structure (SMILES): CCCCCCCOc1cc2c(cc1/C(C)=C/c1ccc(C(=O)O)cc1)C(C)(C)CCS2(=O)=O [Ro-415253]
Pin1 binding in the FP assay [20]: minimal Pin1 binding | Transactivation of RAR downstream target genes (RARβ, TGM2) [18]: suppresses it

Structure (SMILES): O=C(O[C@@H]1Cc2c(O)cc(O)cc2O[C@@H]1c1cc(O)c(O)c(O)c1)c1cc(O)c(O)c(O)c1 [EGCG]
Condition of treated mice (toxic effects) [1]: rather sick | PML-RARα in the bone marrow [1]: effectively reduced PML-RARα in the bone marrow | Spleen weight [1]: spleen weights nearly at basal levels | PML-RARα level [5]: dose-dependently reduced PML-RARα | Pin1 degradation ([5]; NB4 cells): inhibited Pin1 without degrading it | APL cell differentiation [21]: neither Pin1 inhibitors nor Pin1 KD induced APL cell differentiation

Structure (SMILES): COc1cc(C)c(/C=C/C(C)=C/C=C/C(C)=C/C(=O)O)c(C)c1C [acitretin]
Pin1 binding in the FP assay [20]: moderate binding

Structure (SMILES): O=C(O)Cc1c[nH]c2ccccc12 [indo-3-acetic acid]
Pin1 binding in the FP assay [20]: neither pravastatin nor indo-3-acetic acid demonstrated any binding

Further lines, results first:

Pin1 binding in the FP assay [20]: totally inactive
Structure (SMILES): CC1=C(/C=C/C(C)=C/C=C/C(C)=C/C=O)C(C)(C)CCC1 [retinal]

Pin1 binding in the FP assay [20]: totally inactive
Structure (SMILES): CC1=C(/C=C/C(C)=C/C=C/C(C)=C/CO)C(C)(C)CCC1 [retinol]

Pin1 binding in the FP assay [20]: moderate binding
Structure (SMILES): CC1(C)CCC(C)(C)c2cc(NC(=O)c3ccc(C(=O)O)cc3)ccc21 [tamibarotene]

Pin1 binding in the FP assay [20]: totally inactive
Structure (SMILES): CC(=O)OC/C=C(C)/C=C/C=C(C)/C=C/C1=C(C)CCCC1(C)C [retinyl acetate]

Pin1 binding in the FP assay [20]: marginal binding
Structure (SMILES): C=C(c1ccc(C(=O)O)cc1)c1cc2c(cc1C)C(C)(C)CCC2(C)C [bexarotene]
